Assay results from patent US20250312362A1, “INHIBITORS OF MsbA AS ANTIBIOTICS, PHARMACEUTICAL COMPOSITIONS, AND USES THEREOF” (Merck Sharp & Dohme LLC, priority 2022, published 2025).
In brackets after ≈: the same amount, converted by molar mass.

system: various strains of bacteria; assay: Antimicrobial potency: bacterial growth inhibition by OD600 (Antibacterial assay 1); type: cell-based; details: read-out: Antibacterial assay 1 (MITC95)
Protocol: The concentrations of compounds required to inhibit the growth of various strains of bacteria were determined in an assay that assessed bacterial growth by measuring optical density at 600 nm (OD600). Test articles were dissolved in 100% DMSO and serially diluted two-fold from their maximal concentration in 100% DMSO. Forty-nine μl of bacterial inoculum (at approx. 2×10^5 cfu/mL in CAMHB) were put into wells of an assay plate. One μl of compound or DMSO was transferred from the source plate to the assay plate. The completed assay plates were then incubated at 35±2 degC. for 18-22 h. Bacterial growth was measured by reading OD600 on a spectrophotometer. Data analysis calculates the lowest concentration of compound which results in ≥95% growth inhibition (minimum inhibitory threshold concentration 95%, MITC95).

`O=C(COc1ccc(NS(=O)(=O)c2cnn(-c3ccc(Cl)cc3)c2)c(C(O)O)c1)Nc1ccc(NC(=O)C(=O)NCc2ccc(Cl)cc2)c(C(=O)O)c1` [Compound 13] and `O=C(CCNC(=O)c1ccc(NS(=O)(=O)c2cnn(-c3ccc(Cl)cc3)c2)c(C(O)O)c1)Nc1ccc(NS(=O)(=O)c2cnn(-c3ccc(Cl)cc3)c2)c(C(=O)O)c1` [Compound 23] are within 1.5-fold of each other in MIC: 0.0978 µM (≈ 0.0766 µg/mL) for the first, 0.098 µM (≈ 0.0852 µg/mL) for the second.

Going from `O=C(CCCOc1ccc(NS(=O)(=O)c2cnn(-c3ccc(Cl)cc3)c2)c(C(=O)O)c1)Nc1ccc(NS(=O)(=O)c2ccc(-c3ccc(F)cc3)cc2)c(C(=O)O)c1` [Compound 6] to `O=C(CCCOc1ccc(NS(=O)(=O)c2cnn(-c3ccc(Cl)cc3)c2)c(C(=O)O)c1)Nc1ccc(NC(=O)Cc2ccc(-c3ccc(F)cc3)cc2)c(C(=O)O)c1` [Compound 11], the MIC rises from 0.0173 µM (≈ 0.0147 µg/mL) to 0.0489 µM (≈ 0.0404 µg/mL) (2.8-fold).

`O=C(CCCOc1ccc(NS(=O)(=O)c2ccc(-c3ccc(Cl)cc3)s2)c(C(=O)O)c1)Nc1ccc(NS(=O)(=O)c2ccc(-c3ccc(Cl)cc3)s2)c(C(=O)O)c1` [Compound 4, 5-(4-(3-Carboxy-4-((5-(4-chlorophenyl)thiophene)-2-sulfonamido)phenoxy)-butanamido)-2-((5-(4-chlorophenyl)thiophene)-2-sulfonamido)benzoic acid] and `O=C(CCCOc1ccc(NS(=O)(=O)c2ccc(Oc3ccc(Cl)cc3)nc2)c(C(=O)O)c1)Nc1ccc(NS(=O)(=O)c2ccc(Oc3ccc(Cl)cc3)nc2)c(C(=O)O)c1` [Compound 9] are the same in MIC: 0.0122 µM (≈ 0.0108 µg/mL) for the first, 0.0122 µM (≈ 0.0111 µg/mL) for the second.

First: O=C(CCCOc1ccc(NS(=O)(=O)c2cnn(-c3ccc(Cl)cc3)c2)c(C(=O)O)c1)Nc1ccc(NC(=O)Cc2cccc(-c3ccc(F)cc3)c2)c(C(=O)O)c1 [Compound 12]
Second: O=C(CCCOc1ccc(NS(=O)(=O)c2cnn(-c3ccc(Cl)cc3)c2)c(C(=O)O)c1)Nc1ccc(NS(=O)(=O)c2ccc(-c3cc(Cl)cc(Cl)c3)cc2)c(C(=O)O)c1 [Compound 5]
The MIC of the first is 4-fold higher: 0.0489 µM (≈ 0.0404 µg/mL) for the first, 0.0122 µM (≈ 0.011 µg/mL) for the second.

First: O=C(Nc1ccc(NC(=O)C(=O)NCc2ccc(Cl)cc2)c(C(=O)O)c1)Nc1ccc(NC(=O)C(=O)NCc2ccc(Cl)cc2)c(C(=O)O)c1 [Compound 17, 5,5′-(carbonylbis(azanediyl))bis(2-(2-((4-chlorobenzyl)amino)-2-oxoacetamido)benzoic acid)]
Second: O=C(Nc1ccc(NC(=O)C(=O)NCCc2ccc(Cl)cc2)c(C(=O)O)c1)Nc1ccc(NC(=O)C(=O)NCCc2ccc(Cl)cc2)c(C(=O)O)c1 [Compound 19]
The MIC of the first is lower: 0.0245 µM (≈ 0.0177 µg/mL) for the first, > 3.13 µM for the second.

First: CCCCc1ccc(S(=O)(=O)Nc2ccc(NC(=O)CCC(=O)Nc3ccc(NS(=O)(=O)c4ccc(CCCC)cc4)c(C(=O)O)c3)cc2C(=O)O)cc1 [Compound 2, 5,5′-(succinylbis(azanediyl))bis(2-((4-butylphenyl)sulfonamido)benzoic acid)]
Second: CCCCc1ccc(S(=O)(=O)Nc2ccc(NC(=O)CCC(=O)Nc3ccc(NS(=O)(=O)c4ccc(CCCC)cc4)c(P(=O)(O)O)c3)cc2C(=O)O)cc1 [Compound 1, 2-((4-butylphenyl)sulfonamido)-5-(4-((4-((4-butylphenyl)sulfonamido)-3-phosphonophenyl)amino)-4-oxobutanamido)benzoic acid]
The MIC of the first is 27-fold lower: 0.0568 µM (≈ 0.0442 µg/mL) for the first, 1.56 µM (≈ 1.27 µg/mL) for the second.

`O=C(Nc1ccc(NS(=O)(=O)c2cnn(-c3ccc(F)cc3)c2)c(C(=O)O)c1)Nc1ccc(NS(=O)(=O)c2cnn(-c3ccc(F)cc3)c2)c(C(=O)O)c1` [Compound 14, 5-(3-(3-carboxy-4-((1-(4-fluorophenyl)-1H-pyrazole)-4-sulfonamido)phenyl)ureido)-2-((1-(4-fluorophenyl)-1H-pyrazole)-4-sulfonamido)benzoic acid] and `CCCCc1ccc(S(=O)(=O)Nc2ccc(NC(=O)Nc3ccc(NS(=O)(=O)c4ccc(CCCC)cc4)c(C(=O)O)c3)cc2C(=O)O)cc1` [Compound 15] are within 1.5-fold of each other in MIC: 3.13 µM (≈ 2.44 µg/mL) for the first, 2.21 µM (≈ 1.6 µg/mL) for the second.

First: CCCCc1ccc(S(=O)(=O)Nc2ccc(OCCCC(=O)Nc3ccc(NS(=O)(=O)c4ccc(CCCC)cc4)c(C(=O)O)n3)cc2C(=O)O)cc1 [Compound 10]
Second: CCCCc1ccc(S(=O)(=O)Nc2ccc(NC(=O)CCNC(=O)c3ccc(NS(=O)(=O)c4ccc(CCCC)cc4)c(C(=O)O)c3)cc2C(=O)O)cc1 [Compound 20, 2-((4-butylphenyl)sulfonamido)-5-(3-(4-((4-butylphenyl)sulfonamido)-3-carboxy-benzamido)propanamido)benzoic acid]
The MIC of the first is 8.8-fold higher: 0.985 µM (≈ 0.755 µg/mL) for the first, 0.112 µM (≈ 0.0872 µg/mL) for the second.

`Cc1c(S(=O)(=O)Nc2ccc(NC(=O)CCCOc3ccc(NS(=O)(=O)c4cnn(-c5ccc(Cl)cc5)c4)c(C(=O)O)c3)cc2C(=O)O)sc2ccc(Cl)cc12` [Compound 7] and `CCCCc1ccc(S(=O)(=O)Nc2ccc(NC(=O)CCCOc3ccc(NS(=O)(=O)c4sc(-c5ccccc5)nc4C)c(C(=O)O)c3)cc2C(=O)O)cc1` [Compound 8] are within 1.5-fold of each other in MIC: 0.0122 µM (≈ 0.0105 µg/mL) for the first, 0.0173 µM (≈ 0.014 µg/mL) for the second.

`CCCCc1ccc(S(=O)(=O)Nc2ccc(NC(=O)CCNC(=O)c3ccc(NS(=O)(=O)c4ccc(CCOC)cc4)c(C(O)O)c3)cc2C(=O)O)cc1` [Compound 21] and `CCCCc1ccc(S(=O)(=O)Nc2ccc(NC(=O)C[C@H](C)NC(=O)c3ccc(NS(=O)(=O)c4ccc(CCCC)cc4)c(C(O)O)c3)cc2C(=O)O)cc1` [Compound 22] are the same in MIC: 0.782 µM (≈ 0.612 µg/mL) for the first, 0.782 µM (≈ 0.622 µg/mL) for the second.

In the case of `CCCCc1ccc(S(=O)(=O)Nc2ccc(NC(=O)CCC(=O)Nc3cnc(NS(=O)(=O)c4ccc(CCCC)cc4)c(C(=O)O)c3)cc2C(=O)O)cc1` [Compound 3, 2-((4-butylphenyl)sulfonamido)-5-(4-((4-((4-butylphenyl)sulfonamido)-3-carboxyphenyl)amino)-4-oxobutanamido)nicotinic acid], the MIC is reported as 0.621 µM (≈ 0.484 µg/mL).
